{"source": "patent US20250163388A1", "about": "“METHODS FOR DERIVATION AND PROPAGATION OF AVIAN PLURIPOTENT STEM CELLS AND APPLICATIONS THEREOF” (UNIVERSITY OF SOUTHERN CALIFORNIA, priority 2022, published 2025)", "molecules": {"B1": {"name": "chicken LIF: chicken leukemia inhibitory factor, SEQ ID NO: 2; yeast-derived recombinant (protein, listed as Gallus gallus)", "chain": "MRLIPAGVVPFVALLLLQRRPVSGRALLGTSSACPTNGLCRANVLEQTRRQVALLNATAQDLFSLYLKCQGEPFSSESDRLCSPSGIFFPPFHVNRTTERKEVMVAMYKLFAFLNASLGNITRDQEELNPMAKELLNRLHNTTKTTRGLISNLTCLLCKHYNIFQVDVSYGESSKDKSAFKKKQQGCQVLRKYVQVIAQAARVLLPHLSPA"}, "B2": {"name": "BMP4: a TGF-β superfamily ligand (protein, UniProt P12644 293-408, looked up)", "Bone morphogenetic protein 4": "SPKHHSQRARKKNKNCRRHSLYVDFSDVGWNDWIVAPPGYQAFYCHGDCPFPLADHLNSTNHAIVQTLVNSVNSSIPKACCVPTELSAISMLYLDEYDKVVLKNYQEMVVEGCGCR"}}, "format_in_all_cases": "cell-based", "key": {"[1]": {"system": "chicken blastodermal cells / chicken ESCs", "assay": "Derivation and self-renewal culture of chicken ESCs from EGK.X blastodermal cells", "conditions": "for emergence of morphologically undifferentiated ESC colonies: EGK.X blastodermal cells from Rhode Island Red eggs, single supplement, FIG. 8A", "experimental": "(§1) Freshly laid avian fertile eggs at EGK.X-XII stages were kept at 16° C. before extraction. To harvest cells from yolk, a filter paper-based method was applied. Filter paper with a hole at center was placed on top of the embryo. The outer edge of the filter paper was cut together with the vitelline membranes. Embryo were then released from yolk together with the filter paper and washed in PBS solution. Next, embryo was transferred into a 15 ml tube free of the paper ring and dissociated by pipetting inside N2B27 medium. Dissociated cells were cultured in tissue plates coated with irradiated mouse embryonic fibroblast (MEF) cells as feeder layer. Basal medium used for routine ESC maintenance was N2B27 medium composed of Dulbecco's Modified Eagle Medium/Nutrient Mixture F-12 (DMEM/F12):Neuralbasal (1:1) plus 0.5×N2, 0.5×B27 supplement and 20 μg/ml ovotransferrin with the addition of 1× penicillin-streptomycin. Avian ESC self-renewal was kept with 2.5 μM IWR-1, 2 μM Gö6983, 2 μM SB431542 plus chicken LIF (10 ng/ml for ESCs and 40 ng/ml for other avian ESCs). ESCs were cultured at 38° C. in 5% CO2 with daily medium change. To passage, TrypLE was used to incubate the cells for 5 min and neutralized with basal medium in triple amount. Cells were handled with 5 ml pipette all the time to avoid dissociation into singles. Cells can be frozen in Cellbanker 2 and stored at −150° C."}, "[2]": {"system": "avian ESCs", "assay": "Self-renewal of avian ESCs (species not specified)", "experimental": "as §1"}, "[3]": {"system": "quail blastodermal cells / quail ESCs", "assay": "Derivation and self-renewal culture of quail ESCs", "experimental": "We tested whether ESCs could be derived from other avian species in OT/2i. We isolated blastodermal cells from fertilized pheasant, duck and turkey eggs and cultured them in OT/2i. […] We examined whether blocking signaling pathways involved in cardiomyocyte differentiation from pluripotent stem cells could improve ESC self-renewal.\nas §1, with “ESCs were cultured at 38° C. in 5% CO2 with daily medium change. To passage, TrypLE was used to incubate the cells for 5 min and neutralized with basal medium in triple amount. Cells were handled with 5 ml pipette all the time to avoid dissociation into singles. Cells can be frozen in Cellbanker 2 and stored at −150° C.” left out"}, "[4]": {"system": "ostrich ESCs", "assay": "Derivation and self-renewal culture of ostrich ESCs", "experimental": "as §1"}, "[5]": {"system": "avian ESCs", "assay": "Induction of primordial germ cells (PGCs) from avian ESCs", "conditions": "data not shown", "excerpt": "Next, we assessed the potential of chicken ESCs to differentiate into the germ cell lineage. We generated EBs from chicken ESCs and examined the expression of germ cell markers including Dazl, Cvh, Cxcr4, Sycp3 and Stra8. […] To further investigate germ cell differentiation potential of chicken ESCs, we examined the expression of key primordial germ cell (PGC) marker, DAZL by immunofluorescence staining in both undifferentiated chicken ESCs and differentiated EBs. […] A subset of cells (1-3%) in day 3-4 EBs stained positive for DAZL (FIG. 6C). DAZL expression could also be detected inside goose ESC-derived EBs (FIG. 6C)."}}, "note": "Like-named read-outs stand apart in the source and are kept apart here."}
{"molecule": "COc1ccc2c(c1)c(C1=C(c3c[nH]c4ccccc34)C(=O)NC1=O)cn2CCCN(C)C", "note": "[Gö6983]", "values": [{"measurement": "emergence of morphologically undifferentiated ESC colonies", "setting": "[1]", "value": "Morphologically undifferentiated ESC colonies emerged"}]}
{"molecule": "O=C(Nc1cccc2cccnc12)c1ccc(N2C(=O)[C@@H]3[C@H](C2=O)[C@@H]2C=C[C@H]3C2)cc1", "note": "[IWR-1]", "values": [{"measurement": "emergence of morphologically undifferentiated ESC colonies", "setting": "[1]", "value": "Morphologically undifferentiated ESC colonies emerged"}]}
{"molecule": "NC(=O)c1ccc(-c2nc(-c3ccc4c(c3)OCO4)c(-c3ccccn3)[nH]2)cc1", "note": "[SB431542, 4-[4-(2H-1,3-Benzodioxol-5-yl)-5-(pyridin-2-yl)-1H-imidazol-2-yl]benzamide]", "values": [{"measurement": "self-renewal of avian ESCs", "setting": "[2]", "value": "does not promote the self-renewal"}, {"measurement": "chicken ESC self-renewal", "setting": "[1]", "value": "stabilize and proliferate chicken ESCs in long-term passages"}]}
{"molecule": "human LIF: human leukemia inhibitory factor", "values": [{"measurement": "quail ESC derivation and long-term self-renewal", "setting": "[3]", "value": "cannot be substituted"}]}
{"molecule": "human ortholog: human ortholog of ovotransferrin", "values": [{"measurement": "chicken ESC self-renewal", "setting": "[1]", "value": "could not be replaced"}]}
{"molecule": "B1", "values": [{"measurement": "ostrich ESC derivation, maintenance and differentiation", "setting": "[4]", "value": "induced differentiation"}, {"measurement": "ostrich ESC derivation, maintenance and differentiation", "setting": "[4]; listed as LIF", "value": "differentiating effect"}, {"measurement": "quail ESC derivation and long-term self-renewal", "setting": "[3]", "value": "is necessary"}, {"measurement": "chicken ESC self-renewal", "setting": "[1]", "value": "stabilize and proliferate chicken ESCs in long-term passages"}]}
{"molecule": "B2", "values": [{"measurement": "induction of PGCs", "setting": "[5]", "value": "did not respond"}]}
